Reference: patent US12129237B2, “Substituted diaminocarboxamide and diaminocarbonitrile pyrimidines, compositions thereof, and methods of treatment therewith” (SIGNAL PHARMACEUTICALS, LLC, priority 2011, dated 2024)

target: T1, JNK1 (Homo sapiens, UniProt P45983); assay: JNK1 biochemical assays (one or more of: time resolved fluorescence, Z'-LYTE Cascade, radioactive); settings: Table 2; JNK1 IC50 activity level; read-out: Act. Level
T1 construct: purchased Carna Biosciences
T1 sequence (P45983 whole entry): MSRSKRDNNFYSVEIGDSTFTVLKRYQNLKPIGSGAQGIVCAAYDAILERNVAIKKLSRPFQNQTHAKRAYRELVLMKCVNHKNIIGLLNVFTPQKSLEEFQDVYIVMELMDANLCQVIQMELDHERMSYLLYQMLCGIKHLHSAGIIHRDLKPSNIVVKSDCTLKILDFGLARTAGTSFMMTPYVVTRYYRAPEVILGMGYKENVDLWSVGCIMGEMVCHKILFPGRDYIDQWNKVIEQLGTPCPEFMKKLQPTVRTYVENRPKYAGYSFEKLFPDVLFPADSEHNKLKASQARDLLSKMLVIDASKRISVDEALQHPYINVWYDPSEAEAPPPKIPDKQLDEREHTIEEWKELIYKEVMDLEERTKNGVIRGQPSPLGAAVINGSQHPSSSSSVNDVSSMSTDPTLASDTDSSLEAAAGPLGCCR

SMILES	IC50 [nM]
NC(=O)c1cnc(Nc2ccccc2Oc2ccccc2)nc1Nc1ccccc1 [Example B-22, 2-(2-phenoxyphenylamino)-4-(phenylamino)pyrimidine-5-carboxamide]	< 200
COc1cc(Nc2ncc(C(N)=O)c(Nc3ccccc3)n2)cc(OC)c1 [Example B-23, 2-(3,5-dimethoxyphenylamino)-4-(phenylamino)pyrimidine-5-carboxamide]	< 200
COc1cccc(Nc2ncc(C(N)=O)c(Nc3ccccc3)n2)c1 [Example B-25, 2-(3-methoxyphenylamino)-4-(phenylamino)pyrimidine-5-carboxamide]	< 200
Cc1cccc(Nc2ncc(C(N)=O)c(Nc3ccccc3)n2)c1 [Example B-28, 4-(phenylamino)-2-(m-tolylamino)pyrimidine-5-carboxamide]	< 200
COc1ccc(-c2ccccc2)cc1Nc1ncc(C(N)=O)c(Nc2ccccc2)n1 [Example B-29, 2-(4-methoxybiphenyl-3-ylamino)-4-(phenylamino)pyrimidine-5-carboxamide]	1000 to 10000
Cc1ccccc1Nc1ncc(C(N)=O)c(Nc2ccccc2)n1 [Example B-30, 4-(phenylamino)-2-(o-tolylamino)pyrimidine-5-carboxamide]	< 200
COc1ccc(NC(C)=O)cc1Nc1ncc(C(N)=O)c(Nc2ccccc2)n1 [Example B-32, 2-(5-acetamido-2-methoxyphenylamino)-4-(phenylamino)pyrimidine-5-carboxamide]	200 to 800
Cc1cc(Nc2ncc(C(N)=O)c(Nc3ccccc3)n2)n[nH]1 [Example B-33, 2-(5-methyl-1H-pyrazol-3-ylamino)-4-(phenylamino)pyrimidine-5-carboxamide]	200 to 800
NC(=O)c1cnc(NCC2CC2)nc1Nc1ccccc1 [Example B-35, 2-(cyclopropylmethylamino)-4-(phenylamino)pyrimidine-5-carboxamide]	200 to 800
NC(=O)c1cnc(NC2CC2)nc1Nc1ccccc1 [Example B-36, 2-(cyclopropylamino)-4-(phenylamino)pyrimidine-5-carboxamide]	< 200
NC(=O)c1cnc(N2CCC(C(N)=O)CC2)nc1Nc1ccccc1 [Example B-37, 2-(4-carbamoylpiperidin-1-yl)-4-(phenylamino)pyrimidine-5-carboxamide]	1000 to 10000
COc1ccc(CCNc2ncc(C(N)=O)c(Nc3ccccc3)n2)cc1 [Example B-38, 2-(4-methoxyphenethylamino)-4-(phenylamino)pyrimidine-5-carboxamide]	200 to 800
NC(=O)c1cnc(NCc2cccc(F)c2)nc1Nc1ccccc1 [Example B-39, 2-(3-fluorobenzylamino)-4-(phenylamino)pyrimidine-5-carboxamide]	200 to 800
CC(=O)NCCNc1ncc(C(N)=O)c(Nc2ccccc2)n1 [Example B-41, 2-(2-acetamidoethylamino)-4-(phenylamino)pyrimidine-5-carboxamide]	1000 to 10000
COc1ccc(CNc2ncc(C(N)=O)c(Nc3ccccc3)n2)cc1OC [Example B-43, 2-(3,4-dimethoxybenzylamino)-4-(phenylamino)pyrimidine-5-carboxamide]	200 to 800
NC(=O)c1cnc(NC2CCCC2)nc1Nc1ccccc1 [Example B-44, 2-(cyclopentylamino)-4-(phenylamino)pyrimidine-5-carboxamide]	< 200
NC(=O)c1cnc(NC2CCCCC2)nc1Nc1ccccc1 [Example B-45, 2-(cyclohexylamino)-4-(phenylamino)pyrimidine-5-carboxamide]	< 200
CC1CCC(Nc2ncc(C(N)=O)c(Nc3ccccc3)n2)CC1 (centres unmarked) [Example B-47, 2-(4-methylcyclohexylamino)-4-(phenylamino)pyrimidine-5-carboxamide]	< 200
CCOC(=O)N1CCC(Nc2ncc(C(N)=O)c(Nc3ccccc3)n2)CC1 [Example B-48, ethyl 4-(5-carbamoyl-4-(phenylamino)pyrimidin-2-ylamino)piperidine-1-carboxylate]	< 200
NC(=O)c1cnc(NCC2CCCCC2)nc1Nc1ccccc1 [Example B-49, 2-(cyclohexylmethylamino)-4-(phenylamino)pyrimidine-5-carboxamide]	200 to 800
NC(=O)c1cnc(NC2CCN(Cc3ccccc3)CC2)nc1Nc1ccccc1 [Example B-50, 2-(1-benzylpiperidin-4-ylamino)-4-(phenylamino)pyrimidine-5-carboxamide]	200 to 800
NC(=O)c1cnc(NCc2cccnc2)nc1Nc1ccccc1 [Example B-51, 4-(phenylamino)-2-(pyridin-3-ylmethylamino)pyrimidine-5-carboxamide]	200 to 800

Now from value to molecule:

IC50 [nM]	SMILES
< 200	COc1cc(Nc2ncc(C(N)=O)c(Nc3ccccc3)n2)cc(OC)c1OC [Example B-19, 4-(phenylamino)-2-(3,4,5-trimethoxyphenylamino)pyrimidine-5-carboxamide]
< 200	COc1ccc(Nc2ncc(C(N)=O)c(Nc3ccccc3)n2)c(OC)c1 [Example B-20, 2-(2,4-dimethoxyphenylamino)-4-(phenylamino)pyrimidine-5-carboxamide]
1000 to 10000	Cc1ccnc(Nc2ncc(C(N)=O)c(Nc3ccccc3)n2)n1 [Example B-21, 2-(4-methylpyrimidin-2-ylamino)-4-(phenylamino)pyrimidine-5-carboxamide]
< 200	NC(=O)c1cnc(Nc2cccc(F)c2)nc1Nc1ccccc1 [Example B-24, 2-(3-fluorophenylamino)-4-(phenylamino)pyrimidine-5-carboxamide]
< 200	CCOc1cccc(Nc2ncc(C(N)=O)c(Nc3ccccc3)n2)c1 [Example B-26, 2-(3-ethoxyphenylamino)-4-(phenylamino)pyrimidine-5-carboxamide]
< 200	COc1ccc(Nc2ncc(C(N)=O)c(Nc3ccccc3)n2)cc1F [Example B-27, 2-(3-fluoro-4-methoxyphenylamino)-4-(phenylamino)pyrimidine-5-carboxamide]
200 to 800	NC(=O)c1cnc(NC2CCc3ccccc32)nc1Nc1ccccc1 (centres unmarked) [Example B-31, 2-(2,3-dihydro-1H-inden-1-ylamino)-4-(phenylamino)pyrimidine-5-carboxamide]
< 200	COc1ccc(C)c(Nc2ncc(C(N)=O)c(Nc3ccccc3)n2)c1 [Example B-34, 2-(5-methoxy-2-methylphenylamino)-4-(phenylamino)pyrimidine-5-carboxamide]
< 200	NC(=O)c1cnc(Nc2ccc(N3CCOCC3)cc2)nc1Nc1ccccc1 [Example B-40, 2-(4-morpholinophenylamino)-4-(phenylamino)pyrimidine-5-carboxamide]
200 to 800	NC(=O)c1cnc(NCCc2cccs2)nc1Nc1ccccc1 [Example B-42, 4-(phenylamino)-2-(2-(thiophen-2-yl)ethylamino)pyrimidine-5-carboxamide]
< 200	CCC(C)Nc1ncc(C(N)=O)c(Nc2ccccc2)n1 (centres unmarked) [Example B-46, 2-(sec-butylamino)-4-(phenylamino)pyrimidine-5-carboxamide]
800 to 1000	NC(=O)c1cnc(NCc2cc(F)cc(F)c2)nc1Nc1ccccc1 [Example B-52, 2-(3,5-difluorobenzylamino)-4-(phenylamino)pyrimidine-5-carboxamide]
200 to 800	CC(Nc1ncc(C(N)=O)c(Nc2ccccc2)n1)c1ccccc1 (centres unmarked) [Example B-53, 4-(phenylamino)-2-(1-phenylethylamino)pyrimidine-5-carboxamide]
